Assay [1] is described as follows: Cytotoxicity against human PBMC assessed as growth inhibition incubated for 48 hrs by MTT assay. (In general: Formazan colour is commonly taken as a measure of viable cells.)
A short description of assay [2]: Cytotoxicity against human KKU-100 cells assessed as growth inhibition incubated for 48 hrs by MTT assay. Format: functional, cell-based. Conditions: KKU100, 48 h.
The nature of assay [3]: Cytotoxicity against human KKU-214 cells assessed as growth inhibition incubated for 48 hrs by MTT assay. Format: functional, cell-based, KKUM214. The note with it: KKU-M214, 48 h.
A short description of assay [4]: Cytotoxicity against human KKU-055 cells assessed as growth inhibition incubated for 48 hrs by MTT assay. In kind it is functional, cell-based, KKUM055. Conditions: KKU-M055, 48 h.
The nature of assay [5]: Cytotoxicity against human KKU-213 cells assessed as growth inhibition incubated for 48 hrs by MTT assay. In kind it is functional, cell-based, KKUM213. The note with it: KKU-M213, 48 h.
The nature of assay [6]: Potency index, ratio of acid IC50 to compound IC50 for cytotoxicity against human KKU-213 cells assessed as growth inhibition incubated for 48 hrs by MTT assay. In kind it is functional, KKUM213.

As a reminder, the IC50 is the midpoint of a concentration-inhibition curve.

`C=C[C@@]1(C)CC=C2[C@@H](CC[C@@H]3[C@](C)(C(=O)OCc4cccc(F)c4)CCC[C@@]23C)C1`: the IC50 in assay [1] is 163 µM; in assay [2] it was more than 50 µM; in assay [3], more than 50 µM; in assay [4], 41 µM; in assay [5], 28 µM.

On to `C=C[C@@]1(C)CC=C2[C@@H](CC[C@@H]3[C@](C)(C(=O)OCc4cn(Cc5cccc(F)c5)nn4)CCC[C@@]23C)C1`, for which the half-inhibitory concentration (IC50) in assay [2], in assay [3], in assay [4] and in assay [5] was more than 50 µM throughout.

In the case of `C=C[C@@]1(C)CC=C2[C@@H](CC[C@@H]3[C@](C)(C(=O)OCCCC)CCC[C@@]23C)C1`, the IC50 is more than 50 µM in assay [2], more than 50 µM in assay [3], 49 µM in assay [4] and 37 µM in assay [5].

For `C=C[C@@]1(C)CC=C2[C@@H](CC[C@@H]3[C@](C)(C(=O)O)CCC[C@@]23C)C1`, the IC50 was 174 µM in assay [2], 168 µM in assay [3], 120 µM in assay [4] and 149 µM in assay [5].

With `C=C[C@@]1(C)CC=C2[C@@H](CC[C@@H]3[C@](C)(C(=O)OCc4cn(Cc5ccc([N+](=O)[O-])cc5)nn4)CCC[C@@]23C)C1`, the “Ratio IC50” value in assay [6] was 8. The IC50 in assay [1] was more than 200 µM; in assay [2], more than 50 µM; in assay [3], 21 µM; in assay [4], 33 µM; in assay [5], 18 µM.

Consider `O=C(NC1=CC(=O)[C@H]2O[C@H]2[C@H]1O)c1ccccc1O` [DEHYDROXYMETHYLEPOXYQUINOMICIN], for which the concentration for half-maximal inhibition (IC50) in assay [3] and in assay [5] was 19 µM in each case.

`C=CCOC(=O)[C@]1(C)CCC[C@@]2(C)C3=CC[C@](C)(C=C)C[C@@H]3CC[C@H]12`: the IC50 in assay [2], in assay [3], in assay [4] and in assay [5] was more than 50 µM throughout.

Turning to `C=C[C@@]1(C)CC=C2[C@@H](CC[C@@H]3[C@](C)(C(=O)OCc4cn(Cc5ccc(Cl)cc5)nn4)CCC[C@@]23C)C1`, the IC50 in assay [2] was more than 50 µM; in assay [3], 39 µM; in assay [4], more than 50 µM; in assay [5], more than 50 µM.

In the case of `C=C[C@@]1(C)CC=C2[C@@H](CC[C@@H]3[C@](C)(C(=O)OCc4ccccc4)CCC[C@@]23C)C1`, the IC50 in assay [2], in assay [3], in assay [4] and in assay [5] was more than 50 µM in each case.

`C=C[C@@]1(C)CC=C2[C@@H](CC[C@@H]3[C@](C)(C(=O)OCc4cn(Cc5ccc(F)cc5)nn4)CCC[C@@]23C)C1`: the IC50 in assay [2], in assay [3], in assay [4] and in assay [5] was more than 50 µM throughout.

On to `C=C[C@@]1(C)CC=C2[C@@H](CC[C@@H]3[C@](C)(C(=O)OCc4ccc(Br)cc4)CCC[C@@]23C)C1`, for which the half-inhibitory concentration (IC50) in assay [2] was more than 50 µM; in assay [3] it was 41 µM; in assay [4], more than 50 µM; in assay [5] it was 41 µM.

For the compound `C=C[C@@]1(C)CC=C2[C@@H](CC[C@@H]3[C@](C)(C(=O)OCc4cn(Cc5ccc(Br)cc5)nn4)CCC[C@@]23C)C1`, the IC50 in assay [2], in assay [3], in assay [4] and in assay [5] was more than 50 µM in each case.

`C=C[C@@]1(C)CC=C2[C@@H](CC[C@@H]3[C@](C)(C(=O)OCc4ccccc4F)CCC[C@@]23C)C1`: the IC50 in assay [2] was more than 50 µM; in assay [3], more than 50 µM; in assay [4], 47 µM; in assay [5] it was 35 µM.

For `C=C[C@@]1(C)CC=C2[C@@H](CC[C@@H]3[C@](C)(C(=O)OCc4cn(CCCCCCCC)nn4)CCC[C@@]23C)C1`, the half-inhibitory concentration (IC50) is more than 50 µM in assay [2], 38 µM in assay [3], 48 µM in assay [4] and 37 µM in assay [5].

As to `C=C[C@@]1(C)CC=C2[C@@H](CC[C@@H]3[C@](C)(C(=O)OCc4ccc(C)cc4)CCC[C@@]23C)C1`, the concentration for half-maximal inhibition (IC50) in assay [2], in assay [3], in assay [4] and in assay [5] was more than 50 µM throughout.

With `C=C[C@@]1(C)CC=C2[C@@H](CC[C@@H]3[C@](C)(C(=O)OCCCCCCCC)CCC[C@@]23C)C1`, the IC50 in assay [2], in assay [3], in assay [4] and in assay [5] was more than 50 µM each time.

`C=C[C@@]1(C)CC=C2[C@@H](CC[C@@H]3[C@](C)(C(=O)OCc4ccc(OC)cc4)CCC[C@@]23C)C1`: the IC50 in assay [2], in assay [3], in assay [4] and in assay [5] was more than 50 µM in each case.

Take `C#CCOC(=O)[C@]1(C)CCC[C@@]2(C)C3=CC[C@](C)(C=C)C[C@@H]3CC[C@H]12`: the IC50 in assay [1] was 71 µM; in assay [2], more than 50 µM; in assay [3] it was 34 µM; in assay [4] it was 37 µM; in assay [5], 31 µM.

Turning to `C=C[C@@]1(C)CC=C2[C@@H](CC[C@@H]3[C@](C)(C(=O)OCc4cn(Cc5ccccc5)nn4)CCC[C@@]23C)C1`, the IC50 in assay [2] is more than 50 µM; in assay [3], 41 µM; in assay [4], 47 µM; in assay [5], 40 µM.

Take `C=C[C@@]1(C)CC=C2[C@@H](CC[C@@H]3[C@](C)(C(=O)OCc4cn(Cc5ccc(C)cc5)nn4)CCC[C@@]23C)C1`: the IC50 in assay [2] was more than 50 µM; in assay [3], 39 µM; in assay [4], more than 50 µM; in assay [5] it was 47 µM.

Consider `C=C[C@@]1(C)CC=C2[C@@H](CC[C@@H]3[C@](C)(C(=O)OCc4ccc([N+](=O)[O-])cc4)CCC[C@@]23C)C1`, for which the IC50 in assay [2], in assay [3], in assay [4] and in assay [5] was more than 50 µM in each case.

`C=C[C@@]1(C)CC=C2[C@@H](CC[C@@H]3[C@](C)(C(=O)OCc4ccc(Cl)cc4)CCC[C@@]23C)C1`: the half-inhibitory concentration (IC50) in assay [2], in assay [3], in assay [4] and in assay [5] was more than 50 µM each time.

As for `C=C[C@@]1(C)CC=C2[C@@H](CC[C@@H]3[C@](C)(C(=O)OCc4cn(Cc5ccc(OC)cc5)nn4)CCC[C@@]23C)C1`, the half-inhibitory concentration (IC50) in assay [2], in assay [3], in assay [4] and in assay [5] was more than 50 µM in each case.

Turning to `C=C[C@@]1(C)CC=C2[C@@H](CC[C@@H]3[C@](C)(C(=O)OCc4cn(Cc5ccccc5F)nn4)CCC[C@@]23C)C1`, the half-inhibitory concentration (IC50) in assay [2], in assay [3], in assay [4] and in assay [5] was more than 50 µM throughout.

In the case of `C=C[C@@]1(C)CC=C2[C@@H](CC[C@@H]3[C@](C)(C(=O)OCc4ccc(F)cc4)CCC[C@@]23C)C1`, the IC50 in assay [2] was more than 50 µM; in assay [3] it was more than 50 µM; in assay [4] it was more than 50 µM; in assay [5], 38 µM.

These data come from ChEMBL document CHEMBL4715873, “A novel synthetic acanthoic acid analogues and their cytotoxic activity in cholangiocarcinoma cells” (Bioorg Med Chem, 2021).
